Results taken from ChEMBL document CHEMBL1201862, “PubChem BioAssay data set” (2004).
The source made the active and inactive calls.

Legend:
[1] = luciferase reporter signal suppression in cells – H4 neuroglioma cells, luminescence, dose response (AID 1990); assay type: functional, cell-based
[2] = Luminescence Cell-Based Dose Response HTS to Identify Inhibitors of 5'UTR Stem-Loop Driven Prion Protein mRNA Translation in H4 Neuroglioblastoma Cells. [Related pubchem assays: 1827 (Project Summary), 1813 (Primary HTS)]; assay type: functional
[3] = target: T1, Heat shock factor protein 1 (Mus musculus, UniProt P38532); assay: decrease of HSF1-responsive luciferase luminescence – cell-based, NIH3T3, dose retest, confirmation (AID 2382); assay type: functional;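 further: NIH3T3 fibroblasts with HSF1-driven luciferase reporter stressed by proteasome inhibitor MG132; luminescence from HSF1-driven luciferase expression after 8 hours of MG132 stress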
T1 sequence (P38532 whole entry): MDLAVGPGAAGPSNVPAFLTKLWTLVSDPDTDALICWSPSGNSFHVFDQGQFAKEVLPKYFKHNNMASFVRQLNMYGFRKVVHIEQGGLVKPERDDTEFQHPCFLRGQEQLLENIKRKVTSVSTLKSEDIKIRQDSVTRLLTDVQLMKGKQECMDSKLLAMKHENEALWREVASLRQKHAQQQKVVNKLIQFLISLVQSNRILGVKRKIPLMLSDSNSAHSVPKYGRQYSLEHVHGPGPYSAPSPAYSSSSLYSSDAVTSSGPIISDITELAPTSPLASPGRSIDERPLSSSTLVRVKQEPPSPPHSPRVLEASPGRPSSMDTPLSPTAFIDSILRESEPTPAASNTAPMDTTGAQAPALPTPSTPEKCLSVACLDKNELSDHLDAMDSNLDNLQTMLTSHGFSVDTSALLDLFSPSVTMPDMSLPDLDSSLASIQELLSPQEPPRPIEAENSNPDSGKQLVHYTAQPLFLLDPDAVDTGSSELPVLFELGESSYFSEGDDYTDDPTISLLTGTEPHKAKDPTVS

[4] = alpha-synuclein stem-loop luciferase translation blockers – H4 neuroglioma cells, luminescence, confirmation (AID 1988); assay type: functional, cell-based
[5] = Luminescence-based dose response cell-based high throughput screening assay for cytotoxic compounds using the IEC-6 intestinal epithelial cell line. [Related pubchem assays: 1858 (Summary AID.), 1825 (Counterscreen.), 1907 (Confirmation screen.)]; assay type: functional
[6] = target: T2, Replicative DNA helicase DnaB (Mycobacterium tuberculosis, UniProt P9WMR3); assay: DnaB intein splicing inhibitors, dose response, biochemical, cell-free fluorescence (AID 449749); assay type: functional
T2 sequence (P9WMR3 whole entry): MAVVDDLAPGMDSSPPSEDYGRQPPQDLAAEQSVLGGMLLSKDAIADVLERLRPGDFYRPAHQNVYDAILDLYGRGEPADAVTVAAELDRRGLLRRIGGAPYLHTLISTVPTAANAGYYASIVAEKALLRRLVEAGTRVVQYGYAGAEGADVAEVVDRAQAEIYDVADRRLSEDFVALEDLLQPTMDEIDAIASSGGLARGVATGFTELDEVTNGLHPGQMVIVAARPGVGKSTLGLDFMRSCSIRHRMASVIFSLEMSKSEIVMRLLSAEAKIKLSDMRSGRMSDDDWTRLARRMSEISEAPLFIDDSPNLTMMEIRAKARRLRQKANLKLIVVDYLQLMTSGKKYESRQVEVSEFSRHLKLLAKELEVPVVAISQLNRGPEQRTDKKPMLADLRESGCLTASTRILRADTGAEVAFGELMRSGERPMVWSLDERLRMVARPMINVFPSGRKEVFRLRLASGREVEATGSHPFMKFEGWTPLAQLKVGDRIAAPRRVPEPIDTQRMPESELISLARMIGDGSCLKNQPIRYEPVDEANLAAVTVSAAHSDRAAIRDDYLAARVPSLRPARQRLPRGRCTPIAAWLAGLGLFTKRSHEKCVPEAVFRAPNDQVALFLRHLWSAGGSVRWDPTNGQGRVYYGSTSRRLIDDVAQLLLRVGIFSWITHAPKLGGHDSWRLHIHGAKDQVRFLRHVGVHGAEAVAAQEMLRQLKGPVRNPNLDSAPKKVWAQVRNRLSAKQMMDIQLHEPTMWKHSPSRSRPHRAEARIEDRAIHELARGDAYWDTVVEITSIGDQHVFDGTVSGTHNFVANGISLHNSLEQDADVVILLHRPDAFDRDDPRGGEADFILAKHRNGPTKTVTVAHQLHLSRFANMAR

[7] = target: T3, Protein RecA (Mycobacterium tuberculosis, UniProt P9WHJ3); assay: Fluorescence Cell-Free Homogeneous Dose Retest to Identify Inhibitors of RecA-Intein Splicing Activity. [Related pubchem assays (depositor defined):AID2097, AID2223, AID489010, AID492950]; assay type: functional
T3 sequence (P9WHJ3 whole entry): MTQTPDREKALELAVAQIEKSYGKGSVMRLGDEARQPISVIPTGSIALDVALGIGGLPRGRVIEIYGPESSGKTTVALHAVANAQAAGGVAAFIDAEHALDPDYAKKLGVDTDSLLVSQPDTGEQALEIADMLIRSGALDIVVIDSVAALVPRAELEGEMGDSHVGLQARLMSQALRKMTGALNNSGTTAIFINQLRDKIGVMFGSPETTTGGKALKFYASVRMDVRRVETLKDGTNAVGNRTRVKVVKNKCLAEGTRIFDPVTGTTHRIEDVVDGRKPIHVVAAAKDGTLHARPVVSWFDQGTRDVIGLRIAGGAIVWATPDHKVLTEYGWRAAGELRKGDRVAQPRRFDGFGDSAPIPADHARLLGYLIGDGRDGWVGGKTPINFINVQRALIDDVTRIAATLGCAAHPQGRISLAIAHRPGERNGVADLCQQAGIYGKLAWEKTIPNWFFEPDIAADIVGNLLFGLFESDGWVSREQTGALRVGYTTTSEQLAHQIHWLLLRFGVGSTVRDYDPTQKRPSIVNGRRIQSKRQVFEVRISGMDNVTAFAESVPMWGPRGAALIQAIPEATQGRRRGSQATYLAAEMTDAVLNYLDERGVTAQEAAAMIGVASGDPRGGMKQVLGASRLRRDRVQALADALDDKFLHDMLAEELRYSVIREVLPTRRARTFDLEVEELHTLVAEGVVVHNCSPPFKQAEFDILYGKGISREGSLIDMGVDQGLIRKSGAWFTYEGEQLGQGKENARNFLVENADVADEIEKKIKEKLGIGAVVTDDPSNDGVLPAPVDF

[8] = target: T4, NADPH oxidase 1 (Homo sapiens, UniProt Q9Y5S8); assay: Luminescence-based cell-based dose response assay to identify inhibitors of NADPH oxidase 1 (NOX1).; assay type: functional
T4 sequence (Q9Y5S8 whole entry): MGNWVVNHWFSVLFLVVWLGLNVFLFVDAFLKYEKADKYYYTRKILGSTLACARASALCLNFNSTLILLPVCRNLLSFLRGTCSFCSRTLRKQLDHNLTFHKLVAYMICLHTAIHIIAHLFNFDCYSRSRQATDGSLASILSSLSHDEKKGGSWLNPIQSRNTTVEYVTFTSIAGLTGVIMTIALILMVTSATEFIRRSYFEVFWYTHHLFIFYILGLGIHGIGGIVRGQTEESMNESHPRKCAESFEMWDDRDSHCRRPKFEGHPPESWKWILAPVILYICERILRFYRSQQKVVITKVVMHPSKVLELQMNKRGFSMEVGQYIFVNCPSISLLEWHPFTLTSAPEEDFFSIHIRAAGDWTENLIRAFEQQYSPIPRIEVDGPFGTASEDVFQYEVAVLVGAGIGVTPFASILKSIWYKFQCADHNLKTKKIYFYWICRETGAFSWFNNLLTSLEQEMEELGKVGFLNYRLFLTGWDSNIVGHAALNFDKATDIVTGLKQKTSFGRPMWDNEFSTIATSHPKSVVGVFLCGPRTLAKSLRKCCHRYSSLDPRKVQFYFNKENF

[9] = viability of uninfected HEp-2 cells – cell-based, HTS, cytotoxicity control for RSV inhibitor project, dose response (AID 2410); assay type: functional; settings: human respiratory syncytial virus
[10] = target: T5, Corticotropin-releasing factor receptor 2/Corticotropin-releasing factor-binding protein (Homo sapiens, UniProt P24387+Q13324); assay: Dose Response confirmation of uHTS hits for small molecule antagonists of the CRF-binding protein and CRF-R2 receptor complex.; assay type: functional; settings: read-out: IC50_Mean
T5 sequence (Q13324 whole entry): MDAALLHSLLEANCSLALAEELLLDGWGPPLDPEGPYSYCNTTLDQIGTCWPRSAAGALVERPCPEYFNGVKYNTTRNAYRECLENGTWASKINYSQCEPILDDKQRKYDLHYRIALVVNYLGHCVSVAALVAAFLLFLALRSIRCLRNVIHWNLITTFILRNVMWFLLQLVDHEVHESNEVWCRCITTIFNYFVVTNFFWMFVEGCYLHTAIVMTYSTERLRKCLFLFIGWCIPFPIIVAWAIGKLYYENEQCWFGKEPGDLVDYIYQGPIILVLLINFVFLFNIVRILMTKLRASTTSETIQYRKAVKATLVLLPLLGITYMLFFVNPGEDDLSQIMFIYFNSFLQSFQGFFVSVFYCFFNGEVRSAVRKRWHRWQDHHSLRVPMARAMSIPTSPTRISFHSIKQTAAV
T5 sequence (P24387 whole entry): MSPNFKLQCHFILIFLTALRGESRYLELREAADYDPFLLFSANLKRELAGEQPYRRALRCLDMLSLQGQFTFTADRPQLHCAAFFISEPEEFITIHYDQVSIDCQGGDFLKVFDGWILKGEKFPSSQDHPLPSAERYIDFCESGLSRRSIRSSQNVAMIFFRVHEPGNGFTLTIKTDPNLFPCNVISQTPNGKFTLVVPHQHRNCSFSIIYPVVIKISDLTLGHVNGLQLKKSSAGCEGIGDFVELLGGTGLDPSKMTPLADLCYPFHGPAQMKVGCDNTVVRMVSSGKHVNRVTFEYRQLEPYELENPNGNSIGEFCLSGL

[11] = target: T5, Corticotropin-releasing factor receptor 2/Corticotropin-releasing factor-binding protein; assay: activators of CRF receptor 2 with binding protein – uHTS hits, confirmation (AID 602473); assay type: functional; settings: read-out: EC50_Mean
[12] = blockers of CRF-binding protein–CRF-R2 complex – cell-based, uHTS hits, 384-well, dose response (AID 651639); assay type: functional, Homo sapiens; settings: read-out: IC50_Mean
[13] = cells

## O=C1C=C(NCCN2CCOCC2)C(=O)c2cnccc21
[1]
  EC50: 1.99 µM (active)
[2]
  EC50: 6.81 µM (active)
[3]
  EC50: 10.4 µM (active)
[4]
  EC50: 1.88 µM (active)
[5]
  IC50: 0.512 µM (active)
[6]
  AC50: 0.979 µM (active)
[7]
  EC50: 0.536 µM (active)

## CC(=NNc1ccc(C(=O)O)cc1)c1ccc2c(c1)Nc1ccccc1S2
[8]
  IC50: 0.053 µM (active)

## O=C(O)c1ccc(-c2nc(-c3ccc(Cl)cc3Cl)cs2)cc1
[9]
  CC50: > 50 µM (active)
[10]
  IC50: 3.82 µM (active)
[11]
  EC50: > 53 µM (inactive)
[12]
  IC50: > 20 µM (inactive)
[13]
  IC50: 44.2 µM (active)
